Test results published in patent US6599882B1, “Secretin and secretin pharmaceuticals for treating lactose intolerance” (priority 1999, dated 2003).
Ends that are not written are not given here.

Test system: lactose intolerant individuals

Substance: secretin (HSDGTFTSELSRLRDSARLQRLLQGLV; ends and bridges not checked; UniProt P63298 33-59, looked up)
- time after infusion until some slight symptoms of lactose intolerance started again (one severely lactose intolerant individual, one-time infusion): about 3 months
- symptoms of lactose intolerance after consuming dairy and other lactose containing products (one-time intravenous infusion, 1 CU per kilogram of body weight over about 1 to 4 minutes, prolonged period of time after treatment, listed as secretion): without experiencing any of the symptoms of lactose intolerance
